# Where two headings read alike, the source gives them in different places.
# Experiments:
# [1] = molecular target: T1, m1 receptors (Rattus norvegicus, UniProt P08482); test: PI hydrolysis in CHO cells transfected with m1 receptors; assay type: cell-based; details: CHO m1
# T1 construct: expressed in transfected cells; host or cells: CHO cells
# T1 sequence (P08482 1-460): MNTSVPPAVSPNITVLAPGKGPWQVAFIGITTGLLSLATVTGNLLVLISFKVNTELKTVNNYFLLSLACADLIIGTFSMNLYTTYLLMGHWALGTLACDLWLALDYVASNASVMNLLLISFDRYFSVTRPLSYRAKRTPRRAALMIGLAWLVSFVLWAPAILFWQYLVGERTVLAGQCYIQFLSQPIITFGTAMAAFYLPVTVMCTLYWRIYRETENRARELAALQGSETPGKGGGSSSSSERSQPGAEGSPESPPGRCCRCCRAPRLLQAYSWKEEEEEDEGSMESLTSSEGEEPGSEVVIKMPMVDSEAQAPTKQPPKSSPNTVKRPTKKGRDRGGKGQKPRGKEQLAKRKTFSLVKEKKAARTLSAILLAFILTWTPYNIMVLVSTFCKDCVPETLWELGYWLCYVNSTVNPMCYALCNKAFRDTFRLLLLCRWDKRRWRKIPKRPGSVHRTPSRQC
# [2] = molecular target: T2, m4 subtype receptors (PC12 cells) (Rattus norvegicus, UniProt P08485); test: Inhibition of adenylate cyclase activity in PC12 cells; assay type: cell-based; details: PC12 m4; tested at 1mM
# T2 construct: endogenous in cells; host or cells: PC12 cells
# T2 sequence (P08485 1-478): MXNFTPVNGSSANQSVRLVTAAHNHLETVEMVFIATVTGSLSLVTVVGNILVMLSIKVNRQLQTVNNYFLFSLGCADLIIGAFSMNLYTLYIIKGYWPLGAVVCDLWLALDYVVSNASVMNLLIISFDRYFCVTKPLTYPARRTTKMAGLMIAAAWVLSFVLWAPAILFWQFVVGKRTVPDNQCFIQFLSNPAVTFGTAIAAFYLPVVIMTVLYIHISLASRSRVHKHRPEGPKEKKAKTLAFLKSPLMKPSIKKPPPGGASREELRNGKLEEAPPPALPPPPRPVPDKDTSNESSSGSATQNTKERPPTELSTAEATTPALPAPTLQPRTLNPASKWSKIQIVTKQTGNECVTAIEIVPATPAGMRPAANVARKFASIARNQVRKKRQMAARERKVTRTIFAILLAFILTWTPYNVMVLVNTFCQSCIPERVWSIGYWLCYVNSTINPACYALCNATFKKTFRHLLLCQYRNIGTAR
# Description: (§1) The new compounds AF150, AF151, AF150(S) and AF125 were assayed for their ability to stimulate PI in CHO cells transfected with m1 and m3 receptors, respectively (Buck and Fraser, loc cit), and in cultured human neuroblastoma cells, line SK-N-SH, which express mainly the m3 subtype, but not the m1 subtype (Pinkas-Kramarski et al, Neurosci. Lett. 188: 335-340, 1990; Luthin et al Mol. Pharmacol. 34: 327-333, 1988). These compounds were also assayed on cultured PC12 cells which express mainly m4 subtype receptors and are coupled to inhibition of AC activity (Pinkas-Kramarski et al, loc cit).
# (§2) Stimulation of PI breakdown was assayed using the method described by Stein et al (EMBO J. 7: 3031-3035, 1988), and modulation of AC activity was assayed by the method of Stein et al, loc cit and Pinkas-Kramarski et al (FEBS Lett., 239: 174-178, 1988). […]
# [3] = tested on: muscarinic receptors; test: (-)3H-QNB binding to rat cerebral cortex homogenates with and without Cu++ treatment
# [4] = tested on: rat cerebral cortex synaptosomes; test: Synaptosomal 3H-ACh release, basal and K+-evoked; details: 0.1 mM
# Text: The effects of AF150 (and for comparison purposes, AF125, MeN-A-343 and oxotremorine) on basal- and K^+-evoked release of ^3H-ACh were studied on synaptosomes prepared from rat cerebral cortex using the methods described in detail by Pittel et al (J. Neurochem., 55: 665-672, 1990). […] On the other hand, the action of AF150 on presynaptic muscarinic receptors, causing an increase in K^+-evoked ACh release, can be considered either as an M2 antagonistic or an M1 agonistic effect. […] The existence of muscarinic autoreceptors that increase ACh release was manifested also in the PNS in smooth muscle preparation (Kilbinger and Nafziger, Naunyn Schmiedebergs Arch. Pharmacol. 328: 304-309, 1985).
# [5] = molecular target: T3, M1 muscarinic receptor (Rattus norvegicus, UniProt P08482); test: Displacement of 3H-QNB from rat cerebral cortex, 50 mM phosphate buffer; assay type: binding; details: for RATIOS c:a: KH2 cerebellum : KH1 cortex (3H-QNB); for % H1 / % L1: cortex, Table 5; for RATIOS b:a: KL1 : KH1 cortex (3H-QNB); for RATIOS d:b: KL2 cerebellum : KL1 cortex (3H-QNB)
# T3 sequence (P08482 1-460): T1 sequence (P08482 1-460)
# [6] = molecular target: T3, M1 muscarinic receptor; test: Displacement of 3H-PZ from rat cerebral cortex, 10 mM phosphate buffer; assay type: binding; design: from tissue; host or cells: rat cerebral cortex homogenates; details: for RATIOS c:a: KH cerebellum (3H-QNB) : KH cortex (3H-PZ)
# [7] = molecular target: T4, M2 muscarinic receptors (Rattus norvegicus, UniProt P10980); test: Displacement of 3H-QNB from rat cerebellum, 50 mM phosphate buffer; assay type: binding; details: for Ki / % H / % H2 / %L / % L2: cerebellum; for RATIOS d:c: KL2 : KH2 cerebellum (3H-QNB)
# T4 construct: displacing from rat brain homogenates, cerebellum or frontal cortex; from tissue; host or cells: rat cerebellum homogenates
# T4 sequence (P10980 1-466): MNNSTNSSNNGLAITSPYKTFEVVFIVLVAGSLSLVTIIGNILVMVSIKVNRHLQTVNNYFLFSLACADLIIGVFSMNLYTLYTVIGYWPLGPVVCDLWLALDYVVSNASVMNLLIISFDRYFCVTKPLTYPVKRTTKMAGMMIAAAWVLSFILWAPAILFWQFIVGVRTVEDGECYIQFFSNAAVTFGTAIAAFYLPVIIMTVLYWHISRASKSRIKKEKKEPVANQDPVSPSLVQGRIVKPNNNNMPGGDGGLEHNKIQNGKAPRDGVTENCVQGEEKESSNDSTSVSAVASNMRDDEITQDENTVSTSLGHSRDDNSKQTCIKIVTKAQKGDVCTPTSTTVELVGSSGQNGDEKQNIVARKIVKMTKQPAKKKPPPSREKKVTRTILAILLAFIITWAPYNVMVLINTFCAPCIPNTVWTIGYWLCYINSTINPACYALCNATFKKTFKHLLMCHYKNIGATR
# [8] = molecular target: T3, M1 muscarinic receptor; test: Displacement of 3H-PZ from cortical binding sites, Tris/Mn buffer, with and without GppNHp; design: from tissue; host or cells: rat cerebral cortex homogenates
# Text: The binding of agonists to M1 muscarinic receptors and the effect of guanylyl imidophosphate (GppNHp). Agonists are known to be coupled with guanine nucleotide binding proteins (G proteins).
# Non-hydrolyzable guanine nucleotides such as GppNHp dissociate the G protein from the receptor and decrease the affinity of the receptor for agonists but not for antagonists. […] Molec.
# Under these conditions agonists of high efficacy ("full agonists") bind directly to the M1 receptor subtype with two affinities. […] The ratio of low and high affinities (KL/KH) of the M1 receptor may predict the relative efficacies of agonists to activate putative M1 receptor-mediated second messenger systems.
# KH, KL, %H and %L are the apparent inhibition constants of the tested ligands for the high and low affinity sites, respectively. G is GppNHp (guanylyl imidodiphosphate), and was used in 0.1 mM concentration. Displacement of ^3H-PZ from cortical binding sites was performed in Tris/Mn buffer (pH 7.4) for one hour at 25°C; the buffer included 1 mM EDTA and 2mM Mn^++ ions. […] The binding data were analyzed using a GraphPAD program and were fitted to one or two components. Values are means from 1-3 experiments carried out in triplicates.
# [9] = molecular target: T5, m3 subtype (SK-N-SH cells) (Homo sapiens, UniProt P20309); test: PI hydrolysis in SK-N-SH neuroblastoma cells; assay type: cell-based
# T5 construct: endogenous in cells; host or cells: SK-N-SH human neuroblastoma cells
# Description: as §1, §2
# [10] = with Cu++ pretreatment (100 µM, 30 minutes)
# [11] = with Cu++ pretreatment (100 µM, 30 minutes), read-out: KL
# [12] = without pretreatment, read-out: KH
# [13] = without pretreatment, read-out: KL
# [14] = 3H-QNB-Binding KH2 (c), Table 5
# [15] = 3H-QNB-Binding KL2 (d), Table 5
# T5 sequence (P20309 whole entry): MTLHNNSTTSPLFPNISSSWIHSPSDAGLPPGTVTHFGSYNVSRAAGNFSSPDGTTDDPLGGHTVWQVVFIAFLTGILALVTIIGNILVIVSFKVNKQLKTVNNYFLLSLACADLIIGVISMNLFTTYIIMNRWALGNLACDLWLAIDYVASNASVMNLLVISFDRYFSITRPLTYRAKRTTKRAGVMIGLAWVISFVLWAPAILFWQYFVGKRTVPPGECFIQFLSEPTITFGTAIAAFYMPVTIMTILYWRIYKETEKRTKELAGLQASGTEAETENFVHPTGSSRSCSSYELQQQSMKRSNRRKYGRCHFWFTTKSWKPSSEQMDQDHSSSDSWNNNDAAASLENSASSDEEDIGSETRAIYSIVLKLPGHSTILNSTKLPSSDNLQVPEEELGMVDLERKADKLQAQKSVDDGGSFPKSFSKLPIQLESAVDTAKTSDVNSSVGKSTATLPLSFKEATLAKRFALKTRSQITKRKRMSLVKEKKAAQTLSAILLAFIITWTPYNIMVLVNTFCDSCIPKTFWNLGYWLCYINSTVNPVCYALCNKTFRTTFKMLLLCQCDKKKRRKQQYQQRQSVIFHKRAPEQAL
Structure (SMILES),"%H (% of high affinity state) [3, 10]","Ki [3, 11]",%H (% of high affinity state) ([3]; without pretreatment),"Ki [3, 12]","Ki [3, 13]",K+-evoked 3H-ACh release [4],RATIOS c:a [5],% H1 [5],% H [6],Ki ([6]; 3H-PZ-Binding KH (a)),RATIOS c:a [6],"Ki [7, 14]",% H ([7]; Table 4),% H2 ([7]; Table 5),RATIOS b:a [5],RATIOS d:b [5],% L1 [5],"Ki ([7]; 3H-QNB-Binding KH (c), Table 4)","Ki [7, 15]","Ki ([7]; 3H-QNB-Binding KL (d), Table 4)",other results
"CC1=NCC2(CCN(C)CC2)S1 [AF150(S), 2-Methyl-spiro(1,3-thiazoline-5,4')-1'-methylpiperidine]",–,–,–,–,–,–,–,–,–,–,–,–,–,–,–,–,–,–,–,–,"PI, % of carbachol effect [1]: 17%; PI (phosphoinositides hydrolysis) ([1]; tested at 1mM): +"
"C[N+](C)(C)CCOC(N)=O [Carbachol, reference compound]",–,–,–,–,–,–,–,–,–,–,–,–,–,–,–,–,–,–,–,–,AC (adenylate cyclase activity) [2]: +++
C[N+](C)(C)CC#CCOC(=O)Nc1cccc(Cl)c1 [McN-A-343],30±7%,5.7 ± 0.2 µM,13±5%,0.34 ± 0.1 µM,8.5 ± 0.8 µM,172%,1.9,100%,100%,3.8 µM,6.4,11000 nM,100%,100%,–,–,–,–,–,–,"Ki ([3]; with Cu++ pretreatment (100 µM, 30 minutes), read-out: KH): 0.18 ± 0.09 µM; Basal 3H-ACh release [4]: 144%; Ki ([7]; Table 4, read-out: 3H-QNB-Binding KH (c)): 24400 nM"
"C[N+](C)(C)CC#CCN1CCCC1=O [Oxotremorine-M, reference compound]",–,–,–,–,–,–,0.6,26%,53%,0.1 µM,0.69,69 nM,49%,49%,336,0.14,74%,69 nM,5200 nM,5200 nM,"% H ([8]; +G (0.1 mM GppNHp)): 2.7%; %L ([8]; +G (0.1 mM GppNHp)): 73%; % H ([8]; -G): 53%; %L ([8]; -G): 47%; Ki ([8]; KH, +G (0.1 mM GppNHp)): 350 nM; Ki ([8]; KH, -G (without GppNHp)): 110 nM; Ki ([8]; KL, +G (0.1 mM GppNHp)): 4200 nM; Ki ([8]; KL, -G): 6700 nM; KL-G / KH-G ([8]; ratio of low and high affinities without GppNHp): 61; accumulation of inositol-1-phosphate (IP1) stimulated over basal level [9]: 5.24 fold; %L [6]: 47%; RATIOS b:a [6]: 67; Ki ([6]; 3H-PZ-Binding KL (b)): 6.7 µM; RATIOS d:b ([6]; KL cerebellum (3H-QNB) : KL cortex (3H-PZ)): 0.78; RATIOS d:c [7]: 75; %L ([7]; Table 4): 51%; % L2 ([7]; Table 5): 51%"
O=C1CCCN1CC#CCN1CCCC1 [Oxotremorine],51%,7.2 ± 1.7 µM,32%,0.02 ± 0.005 µM,13.3 ± 1.4 µM,56%,0.9,13%,–,–,–,14 nM,35%,35%,100,0.36,87%,14 nM,580 nM,580 nM,"%H (% of high affinity state) ([3]; with Cu++ pretreatment (100 µM, 30 minutes), listed as 3): 51±7%; %H (% of high affinity state) ([3]; without pretreatment, listed as 3): 32±3%; RATIOS d:c [7]: 41; %L ([7]; Table 4): 65%; % L2 ([7]; Table 5): 65%"

# Source: patent EP0452101B1, “Spiro bridged and unbridged heterocyclic compounds” (ISRAEL INSTITUTE FOR BIOLOGICAL RESEARCH, priority 1990, dated 1991)
